This note sets out measurements from ChEMBL document CHEMBL1132978, “Artificial neural network applied to prediction of fluorquinolone antibacterial activity by topological methods” (2000).

For orientation: MIC means the least concentration at which growth counts as inhibited.

SMILES strings stand for the structures. In brackets after ≈: the same amount, converted by molar mass.

In this experiment the test system is Escherichia coli. The experiment can be described thus: Minimum inhibitory concentration against Escherichia coli. The experiment is classed as functional.
The compound `CN1CCN(c2cc3c(cc2F)c(=O)c(C(=O)O)cn3-c2ccc(F)cc2F)CC1` showed an MIC of 0.2 µg/mL (≈ 0.479 µM). With `COc1c(N2CCCC(N)C2)c(F)cc2c(=O)c(C(=O)O)cn(C3CC3)c12` (stereo not drawn) the figure was 0.1 µg/mL (≈ 0.266 µM); with `NCC1CCN(c2cc3c(cc2F)c(=O)c(C(=O)O)cn3C2CC2)C1` (stereo not drawn), 0.05 µg/mL (≈ 0.145 µM).

`CCNC(C)C1CCN(c2cc3c(c(N)c2F)c(=O)c(C(=O)O)cn3C2CC2)C1` (stereo not drawn) yielded an MIC of 0.1 µg/mL (≈ 0.248 µM). With `CC1CN(c2cc3c(cc2F)c(=O)c(C(=O)O)cn3C(C)C)CC(C)N1` (stereo not drawn) the figure was 1.6 µg/mL (≈ 4.43 µM). With `CC1CN(c2cc3c(cc2F)c(=O)c(C(=O)O)cn3C(C)(C)C)CC(C)N1` (stereo not drawn) the figure was 0.2 µg/mL (≈ 0.533 µM). With `CNCC1CCN(c2cc3c(cc2F)c(=O)c(C(=O)O)cn3C(C)C)C1` (stereo not drawn) the figure was 3.1 µg/mL (≈ 8.58 µM); with `CC(C)(C)n1cc(C(=O)O)c(=O)c2cc(F)c(N3CCC(N)C3)cc21` (stereo not drawn), 0.2 µg/mL (≈ 0.576 µM).

The compound `COc1c(N2CCCC(CN)C2)c(F)cc2c(=O)c(C(=O)O)cn(C3CC3)c12` (stereo not drawn) registered an MIC of 0.2 µg/mL (≈ 0.514 µM). As for `COc1c(N2CCC(N)C2)c(F)c(N)c2c(=O)c(C(=O)O)cn(C3CC3)c12` (stereo not drawn), the figure is 0.025 µg/mL (≈ 0.0664 µM); as for `NC1CCN(c2c(F)cc3c(=O)c(C(=O)O)cn(C4CC4)c3c2Cl)C1` (stereo not drawn) [CLINAFLOXACIN], 0.013 µg/mL (≈ 0.0355 µM); as for `CCN1CCN(c2cc3c(cc2F)c(=O)c(C(=O)O)cn3C2CC2)CC1` [ENROFLOXACIN], 0.05 µg/mL (≈ 0.139 µM). With `COc1c(N2CCNC(C)C2)c(F)cc2c(=O)c(C(=O)O)cn(C3CC3)c12` (stereo not drawn) [GATIFLOXACIN] the figure was 0.05 µg/mL (≈ 0.133 µM); with `CCNCC1CCN(c2c(F)cc3c(=O)c(C(=O)O)cn(CC)c3c2F)C1` (stereo not drawn) [MERAFLOXACIN], 0.1 µg/mL (≈ 0.264 µM); with `CCn1cc(C(=O)O)c(=O)c2cc(F)c(N3CCNCC3)cc21` [NORFLOXACIN], 0.1 µg/mL (≈ 0.313 µM). For the compound `CCNCC1CCN(c2c(F)cc3c(=O)c(C(=O)O)cn(C4CC4)c3c2F)C1` (stereo not drawn) [PD-117558], the MIC worked out at 0.05 µg/mL (≈ 0.128 µM). As for `CC1CN(c2cc3c(cc2F)c(=O)c(C(=O)O)cn3-c2ccc(F)cc2F)CCN1` (stereo not drawn) [TEMAFLOXACIN], the figure is 0.1 µg/mL (≈ 0.24 µM); as for `NC1CCN(c2nc3c(cc2F)c(=O)c(C(=O)O)cn3-c2ccc(F)cc2F)C1` (stereo not drawn) [TOSUFLOXACIN], 0.025 µg/mL (≈ 0.0618 µM).
